Data on 20 compounds can be found in EP4703359A1 (Shanghai Simr Biotechnology Co., Ltd., priority 2023, dated 2024).

The structures appear in SMILES notation.

In experiment [1] the target is T1, α2-GABAA receptor (Homo sapiens, UniProt P18507+P47869).
T1 construct: expressed in transfected cells
Nature of the experiment: Radioactive ligand (3H-flunitrazepam) competitive binding assay, BZD site of membrane proteins of α2-GABAAR-HEK293 cells. Conditions: competition with 1 nM 3H-flunitrazepam; HEK293 membranes expressing α2, β3, γ2 subunits; Ki calculated from IC50; read-out: α2 Ki. An excerpt:
(§1) The α subunit, β subunit, and γ subunit are indispensable for forming a fully functional GABAA receptor. In this example, HEK293 cells stably expressing α2-GABAA receptors (α2-GABAAR) were constructed and screened respectively via liposome transfection (Felgner, P.L., et al. Proceedings of the National Academy of Sciences, 1987, 84: 7413-7417). The α2-GABAAR-HEK293 cell model co-expresses the α2 subunit (protein sequence referenced under GenBank accession number: NM_000807.4), β3 subunit (protein sequence referenced under GenBank accession number: NM_000814.5), and γ2 subunit (protein sequence referenced under GenBank accession number: NM_000816.3).
(§2) The above cell lines were subcultured. α2-GABAAR-HEK293 cells were amplified for testing the affinity of compounds to the benzodiazepine (BZD) site of GABAA receptors. Some of the α2-GABAAR-HEK293 cells in suspension during subculturing were plated on glass slides pre-treated with Poly-D-Lysine for electrophysiological testing (method reference: Patent CN 107344936 A, paragraph 0586).
The affinity of the compound for the α2-GABAA receptor was determined by competing with ^3H-flunitrazepam (isotope ^3H-labeled flunitrazepam) for binding to the BZD site of membrane proteins in HEK293 cells stably expressing human α2-GABAAR.
Membrane preparation: Cells were suspended in 50 mM Tris-HCl buffer (pH=7.4), homogenized on ice using a homogenizer for 20 seconds with 10 repetitions, and centrifuged at 4°C, 1000g for 10 minutes. The supernatant was collected, and the above steps were repeated. The supernatant was centrifuged at 4°C (33,800 × g; Thermo, rotor: A27-8x50) for 60 minutes, and the pellet was resuspended in Tris buffer (50 mM Tris-HCl, 10 mM MgCl2, 0.5 mM EDTA, 10% glycerol). The protein concentration was determined using the bicinchoninic acid (BCA) protein assay based on the copper ion reduction method (BCA kit purchased from Pierce (Annoron)). Aliquots of 1 mL were prepared and stored at -80°C.
Radioactive ligand competitive binding assay: This assay was conducted in a 200 µL system (96-well plate), containing 100 µL of cell membrane. The concentration of ^3H-flunitrazepam was 1 nM, and the concentration of the test compound ranged from […]. Flumazenil was used as a control. The low signal control well (Low Control, LC) was added with 1 µL of 2 mM flumazenil (final concentration 10 µM), while the high signal control well (High Control, HC) was added with 1 µL of dimethyl sulfoxide. The final concentration of the target membrane protein was 5 µg/well. All test compound stock solutions were prepared as 10 mM solutions in dimethyl sulfoxide. The working concentration of the samples was prepared by diluting all samples to 0.2 mM with dimethyl sulfoxide, followed by a 4-fold serial dilution to obtain a total of 8 concentration gradients. The 96-well plate was sealed with sealing film and then incubated on a shaker at room temperature for 1 hour. The GF/C filter plate was also soaked with a soaking buffer (0.3% PEI (polyethyleneimine, purchased from: Sigma-Aldrich, model: P314), stored at 4°C) for at least 0.5 hours. After the incubation was completed, the mixture was collected onto a GF/C filter plate using a cell harvester and washed four times with wash buffer (50 mM Tris-HCl, pH 7.4, stored at 4°C). After drying in a 50°C oven for 1 hour, the dried GF/C filter plate was sealed at the bottom with a film. The residual radioactivity on the filter membrane was detected using liquid scintillation counting. Each well was filled with 50 µL of scintillation fluid and sealed. Readings were taken using a Microbeta^2 (microplate counter, purchased from PerkinElmer, model: CNLL0153). The inhibitory activity of the test sample on the binding of ^3H-flunitrazepam to GABAA receptor membrane protein was calculated. […]

Experiment [2] concerns the target T1, α2-GABAA receptor. Nature of the experiment: Whole-cell patch-clamp electrophysiology, positive allosteric modulatory activity in α2-GABAAR-HEK293 cells. Type of experiment: cell-based. Conditions: compound 100 nM; GABA 0.10 to 0.11 µM (approximately EC7-8); normalized to reference compound CVL-865 (= 100%); read-out: α2-GABAAR Positive allosteric modulatory activity.
From the text: as §1, §2
The positive modulatory activity of the test drug on the α2-GABAA receptor was assessed using electrophysiological methods. The specific approach is as follows:
With regards to the concentration of the compound, the final concentration of all compounds used in the screening was 100 nM. For cell lines expressing α2-GABAA receptors, the GABA concentration was 0.10 to 0.11 µM (approximately EC7-8). Electrophysiological experiments were conducted using the whole-cell patch-clamp technique, which can be referenced to the method reported in the literature (Nickolls, S. A., et al. *British Journal of Pharmacology*, 2018, 175: 708-725). The composition of the extracellular solution (ECS) for electrophysiology was as follows: 150 mM NaCl, 5 mM KCl, 2.5 mM CaCl2, 1 mM MgCl2, 10 mM HEPES, and 10 mM glucose (pH 7.4). The intracellular solution (ICS) for electrophysiology was formulated as follows: 140 mM CsCl, 11 mM EGTA, 10 mM HEPES, 2 mM CaCl2, 1 mM MgCl2, 4 mM MgATP, and 2 mM TEA (pH 7.3). GABA (γ-aminobutyric acid) powder was dissolved in pure water to prepare a stock solution, which was subsequently diluted in ECS. The compound was initially dissolved in dimethyl sulfoxide to prepare a 4 mM stock solution, followed by stepwise dilution into GABA-ECS at corresponding concentrations. All solutions were freshly prepared prior to electrophysiological testing.
Electrophysiological signals were acquired using an EPC 10 amplifier and PatchMaster software (HEKA) or an Axon 700B amplifier and Clampex software (AXON). The recording electrode was pulled from borosilicate glass, with an electrode resistance of 4 to 6 MΩ. Extracellular administration was performed using the ALA-VC-8PG™ system. A single independently growing cell was selected. After forming a tight seal between the glass electrode and the cell membrane, the membrane was ruptured to establish the whole-cell configuration. The cell membrane potential was clamped at -60 mV and recorded in Gap-free mode. During the test, extracellular fluid was first applied externally for approximately 20 seconds. After the baseline (Iprebaseline) was stabilized, the extracellular solution was switched to GABA-ECS. At this point, the current induced by GABA (Igaba) can be detected. After approximately 10 to 20 seconds, once the current had stabilized, the extracellular solution was switched to a mixture of the compound and GABA-ECS until the current induced by both the compound and GABA (Itreatment) could be detected. Finally, the solution was switched to extracellular fluid, and the recording was terminated after 20 to 40 seconds. Only cells with a stable baseline, an absolute control current magnitude (Igaba - Iprebaseline) greater than 40 pA, and a relatively stable current within 10 to 20 seconds were used for compound testing. […]

Turning to `COc1cccc(F)c1-c1cccn2c(N)c(C(=O)Nc3ccccc3)nc12` [Example 13, 3-Amino-8-(2-fluoro-6-methoxyphenyl)-N-phenylimidazo[1,2-a]pyridine-2-carboxamide], the Ki at α2-GABAA receptor [1] is 44 nM. For the same compound, the Emax at 0.1 µM at α2-GABAA receptor [2] was 107%.

With `CCCNC(=O)c1nc2c(N3CCOCC3C)cccn2c1N` (centres unmarked) [Example 149, 3-Amino-8-(3-methylmorpholino)-N-propylimidazo[1,2-a]pyridine-2-carboxamide], the Ki at α2-GABAA receptor [1] is 90 nM. Further, at α2-GABAA receptor [2], the Emax at 0.1 µM came out at 44%.

`CCCNC(=O)c1nc2c(-c3cc4c(cc3OC)N(C)C(=O)CO4)c(F)ccn2c1N` [Example 123, 3-Amino-7-fluoro-8-(6-methoxy-4-methyl-3-oxo-3,4-dihydro-2H-benzo[b][1,4]oxazin-7-yl)-N-propylimidazo[1,2-a]pyridine-2-carboxamide]: the Ki on α2-GABAA receptor [1] is 4.97 nM. Besides, the Emax at 0.1 µM at α2-GABAA receptor [2] is 71%.

Consider `CCCNC(=O)c1nc2c(-c3c(F)cccc3OC)c(F)ccn2c1N` [Example 122, 3-Amino-7-fluoro-8-(2-fluoro-6-methoxyphenyl)-N-propylimidazo[1,2-a]pyridine-2-carboxamide], for which the Ki on α2-GABAA receptor [1] was 11.4 nM. Also, the Emax at 0.1 µM on α2-GABAA receptor [2] worked out at 105%.

`CCCNC(=O)c1nc2c(-c3cc4c(cc3OC)N(C)C(=O)CO4)cccn2c1N` [Example 91, 3-Amino-8-(6-methoxy-4-methyl-3-oxo-3,4-dihydro-2H-benzo[b][1,4]oxazin-7-yl)-N-propylimidazo[1,2-a]pyridine-2-carboxamide]: the Ki at α2-GABAA receptor [1] was 27 nM. For the same compound, the Emax at 0.1 µM on α2-GABAA receptor [2] was found to be 93%.

Consider `CCCNC(=O)c1nc2c(-c3cc(-c4cnnc5c4ncn5CC)ccc3OC)cccn2c1N` [Example 71, 3-Amino-8-(5-(7-ethyl-7H-imidazo[4,5-c]pyridazin-4-yl)-2-methoxyphenyl)-N-propylimidazo[1,2-a]pyridine-2-carboxamide], for which the Ki on α2-GABAA receptor [1] was 7.43 nM. Besides, the Emax at 0.1 µM at α2-GABAA receptor [2] came out at 130%.

For the compound `CCCNC(=O)c1nc2c(-c3c(F)cccc3OC)nccn2c1N` [Example 135, 3-amino-8-(2-fluoro-6-methoxyphenyl)-N-propylimidazo[1,2-a]pyrazine-2-carboxamide], the Ki at α2-GABAA receptor [1] is 81.1 nM. Besides, on α2-GABAA receptor [2], the Emax at 0.1 µM turned out to be 60%.

Take `CCCNC(=O)c1nc2c(-c3c(F)cccc3OC)c(C#N)ccn2c1N` [Example 148, 3-Amino-7-cyano-8-(2-fluoro-6-methoxyphenyl)-N-propylimidazo[1,2-a]pyridine-2-carboxamide]: the Ki on α2-GABAA receptor [1] was 4.46 nM. Further, the Emax at 0.1 µM at α2-GABAA receptor [2] came out at 107%.

Turning to `CCCNC(=O)c1nc2c(-c3cccc(CCC#N)c3)cccn2c1N` [Example 37, 3-Amino-8-(3-(2-cyanoethyl)phenyl)-N-propylimidazo[1,2-a]pyridine-2-carboxamide], on α2-GABAA receptor [1], the Ki is 33.6 nM. For the same compound, the Emax at 0.1 µM on α2-GABAA receptor [2] was determined as 105%.

For `CCCNC(=O)c1nc2c(-c3cccc(Cl)c3F)cccn2c1N` [Example 66, 3-Amino-8-(3-chloro-2-fluorophenyl)-N-propylimidazo[1,2-a]pyridine-2-carboxamide], the Ki on α2-GABAA receptor [1] is 2.44 nM.

As for `CCCNC(=O)c1nc2c(-c3cccc(C(F)(F)F)c3)cccn2c1N` [Example 47, 3-Amino-N-propyl-8-(3-(trifluoromethyl)phenyl)imidazo[1,2-a]pyridine-2-carboxamide], on α2-GABAA receptor [1], the Ki was 35.2 nM.

As to `CCCNC(=O)c1nc2c(-c3cc(OC)ccc3OC)c(F)ccn2c1N` [Example 111], the Emax at 0.1 µM on α2-GABAA receptor [2] came to 77%.

For the compound `COc1cccc(F)c1-c1cccn2c(N)c(C(=O)NC34CC(C3)C4)nc12` [Example 11, 3-Amino-N-(bicyclo[1.1.1]pent-1-yl)-8-(2-fluoro-6-methoxyphenyl)imidazo[1,2-a]pyridine-2-carboxamide], the Emax at 0.1 µM on α2-GABAA receptor [2] turned out to be 27%.

Consider `CCCNC(=O)c1nc2c(-c3cccnc3F)c(F)ccn2c1N` [Example 112, 3-Amino-7-fluoro-8-(2-fluoropyridin-3-yl)-N-propylimidazo[1,2-a]pyridine-2-carboxamide], for which the Emax at 0.1 µM on α2-GABAA receptor [2] amounted to 53%.

In the case of `COc1cccc(F)c1-c1cccn2c(N)c(C(=O)NCCc3ccccc3)nc12` [Example 21, 3-Amino-8-(2-fluoro-6-methoxyphenyl)-N-phenethylimidazo[1,2-a]pyridine-2-carboxamide], the Emax at 0.1 µM at α2-GABAA receptor [2] is 43%.

Consider `CC#Cc1cccc(-c2cccn3c(N)c(C(=O)NCCC)nc23)c1` [Example 40, 3-Amino-8-(3-(prop-1-yn-1-yl)phenyl)-N-propylimidazo[1,2-a]pyridine-2-carboxamide], for which, on α2-GABAA receptor [2], the Emax at 0.1 µM worked out at 25%.

With `CCCNC(=O)c1nc2c(-c3cnc(OC)nc3OC)c(F)ccn2c1N` [Example 120, 3-Amino-8-(2,4-dimethoxypyrimidin-5-yl)-7-fluoro-N-propylimidazo[1,2-a]pyridine-2-carboxamide], the Emax at 0.1 µM on α2-GABAA receptor [2] was determined as 59%.

Consider `[2H]c1ccn2c(N)c(C(=O)NCCC)nc2c1-c1c(F)cccc1OC` [Example 150, 3-Amino-8-(2-fluoro-6-methoxyphenyl)-N-propylimidazo[1,2-a]pyridine-7-deuterio-2-carboxamide], for which the Emax at 0.1 µM at α2-GABAA receptor [2] is 85%.

In the case of `CCCNC(=O)c1nc2c(-c3cc(F)ccc3OC)c(F)ccn2c1N` [Example 110, 3-Amino-7-fluoro-8-(5-fluoro-2-methoxyphenyl)-N-propylimidazo[1,2-a]pyridine-2-carboxamide], the Emax at 0.1 µM at α2-GABAA receptor [2] worked out at 141%.

Take `CCCNC(=O)c1nc2c(-c3cc4cccnc4cc3OC)cccn2c1N` [Example 97, 3-Amino-8-(7-methoxyquinolin-6-yl)-N-propylimidazo[1,2-a]pyridine-2-carboxamide]: at α2-GABAA receptor [2], the Emax at 0.1 µM came to 52%.
